Reference: article PMC2654083 (The Journal of General Physiology, 2009)

Molecular target: KirBac1.1 (Burkholderia pseudomallei, UniProt P83698)
Experiment: biochemical

Chain of KirBac1.1 (P83698 1-333): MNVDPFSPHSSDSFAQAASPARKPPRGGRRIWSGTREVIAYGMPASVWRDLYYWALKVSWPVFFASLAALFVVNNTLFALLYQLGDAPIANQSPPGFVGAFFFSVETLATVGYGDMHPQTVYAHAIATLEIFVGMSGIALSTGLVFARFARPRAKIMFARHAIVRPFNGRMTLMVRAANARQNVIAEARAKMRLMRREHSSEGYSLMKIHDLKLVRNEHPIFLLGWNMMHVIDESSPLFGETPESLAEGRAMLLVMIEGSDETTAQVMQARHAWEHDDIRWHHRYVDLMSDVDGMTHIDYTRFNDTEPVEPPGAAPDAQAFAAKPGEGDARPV

NCCCNCCCCNCCCN [spermine]
IC50: 800 µM
